{
  "source": "patent US11890375B2",
  "about": "“Ophthalmic solution of difluprednate” (SUN PHARMA ADVANCED RESEARCH COMPANY LIMITED, priority 2015, dated 2024)",
  "origin": "cited, not measured here",
  "data": [
    {"molecule": "CCCC(=O)O[C@]1(C(=O)COC(C)=O)CC[C@H]2[C@@H]3C[C@H](F)C4=CC(=O)C=C[C@]4(C)[C@@]3(F)[C@@H](O)C[C@@]21C", "note": "[Difluprednate]", "values": [
      {"measurement": "solubility in aqueous vehicle", "value": "practically insoluble"}
    ]}
  ]
}
